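Values below derive from 48-hour exposures of cells grown in 96-well plates, with endpoints linearly interpolated between the two concentrations bracketing the appropriate inhibition level. The concentration for 50% growth inhibition is given as GI50.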 Activity calls are given as the source filed them. Cut-off read from the data, not from the text of the source: active = GI50 up to about 1.1 µM and inactive = higher.
Legend:
Test in all cases: NCI anticancer screen, dose series, 48 h
HOP-62 = system: HOP-62
HT-29 = system: HT-29
RPMI-8226 = system: RPMI-8226
SK-OV-3 = system: SK-OV-3
SW-620 = system: SW-620
SK-MEL-2 = system: SK-MEL-2
MCF7 = system: MCF7
NCI-H522 = system: NCI-H522
786-0 = system: 786-0
SNB-19 = system: SNB-19
NCI-H460 = system: NCI-H460
MDA-N = system: MDA-N
CCRF-CEM = system: CCRF-CEM
IGROV-1 = system: IGROV-1
UACC-257 = system: UACC-257
TK-10 = system: TK-10
HL-60 = system: HL-60
PC-3 = system: PC-3
A498 = system: A498
COLO 205 = system: COLO 205

Row | SMILES | GI50 (HOP-62) | GI50 (HT-29) | GI50 (RPMI-8226) | GI50 (SK-OV-3) | GI50 (SW-620) | GI50 (SK-MEL-2) | GI50 (MCF7) | GI50 (NCI-H522) | GI50 (786-0) | GI50 (SNB-19) | GI50 (NCI-H460) | GI50 (MDA-N) | GI50 (CCRF-CEM) | GI50 (IGROV-1) | GI50 (UACC-257) | GI50 (TK-10) | GI50 (HL-60) | GI50 (PC-3) | GI50 (A498) | GI50 (COLO 205)
1 | C=C(C)C(=O)O[C@H]1C/C(CO)=C/CCC(=C)C(OC(C)=O)[C@H]2OC(=O)C(=C)[C@H]12 (stereo not given in full) | 26.2 µM (inactive) | 5.86 µM (inactive) | 1.82 µM (inactive) | 44.9 µM (inactive) | 3.87 µM (inactive) | 7.18 µM (inactive) | 4.39 µM (inactive) | 3.45 µM (inactive) | 3.79 µM (inactive) | 28.7 µM (inactive) | 17.1 µM (inactive) | 4.49 µM (inactive) | 1.6 µM (inactive) | 17.5 µM (inactive) | 10 µM (inactive) | > 10 µM (inactive) | 3.09 µM (inactive) | 14.6 µM (inactive) | 18.7 µM (inactive) | 4.5 µM (inactive)
2 | COC(CN(C=O)[C@@H](c1ccc(Cl)cc1)c1cc2ccccc2o1)OC | 22 µM (inactive) | 17.1 µM (inactive) | 16 µM (inactive) | 0.841 µM (active) | 16.6 µM (inactive) | 16.7 µM (inactive) | 15.5 µM (inactive) | 14.5 µM (inactive) | 23.6 µM (inactive) | 19.4 µM (inactive) | 15.5 µM (inactive) | 17.1 µM (inactive) | 21.1 µM (inactive) | 14.8 µM (inactive) | 14 µM (inactive) | 15.5 µM (inactive) | 20.5 µM (inactive) | 17.3 µM (inactive) | 18.9 µM (inactive) | 17.6 µM (inactive)
3 | COc1ccc(/C=C2\Sc3nnc(C)n3N=C2c2cc(F)c(Cl)cc2Cl)cc1OC | 17 µM (inactive) | 13.2 µM (inactive) | 2.58 µM (inactive) | 30.1 µM (inactive) | 5.33 µM (inactive) | 15.9 µM (inactive) | 5.87 µM (inactive) | 11.3 µM (inactive) | 2.97 µM (inactive) | 1.19 µM (inactive) | 20.8 µM (inactive) | 5.32 µM (inactive) | 4.18 µM (inactive) | 16 µM (inactive) | 17 µM (inactive) | 17.9 µM (inactive) | 8.95 µM (inactive) | 18.7 µM (inactive) | 19.3 µM (inactive) | 22.3 µM (inactive)
4 | FC1=C2C3CCC(C3)C2C1(F)F (stereo not given) | > 100 µM (inactive) | > 100 µM (inactive) | > 100 µM (inactive) | > 100 µM (inactive) | > 100 µM (inactive) | > 100 µM (inactive) | > 100 µM (inactive) | > 100 µM (inactive) | > 100 µM (inactive) | > 100 µM (inactive) | > 100 µM (inactive) | > 100 µM (inactive) | 47.6 µM (inactive) | > 100 µM (inactive) | > 100 µM (inactive) | > 100 µM (inactive) | 81.7 µM (inactive) | > 100 µM (inactive) | > 100 µM (inactive) | > 100 µM (inactive)
5 | C/C(=N\Nc1ccc2ccccc2n1)c1ccccc1O | 14 µM (inactive) | 8.15 µM (inactive) | 7.23 µM (inactive) | 29.8 µM (inactive) | > 27.6 µM (inactive) | > 100 µM (inactive) | 5.31 µM (inactive) | > 100 µM (inactive) | > 37.3 µM (inactive) | > 63.8 µM (inactive) | > 92.5 µM (inactive) | > 100 µM (inactive) | 3.33 µM (inactive) | > 100 µM (inactive) | > 100 µM (inactive) | > 86.3 µM (inactive) | > 100 µM (inactive) | > 100 µM (inactive) | > 100 µM (inactive) | > 100 µM (inactive)
6 | CC1=NN(C(=O)CC(=O)Nc2ccc(Cl)cc2)C(=O)C1/N=N\c1ccc(S(=O)(=O)c2ccc(/N=N/C3C(=O)N(C(=O)CC(=O)Nc4ccc(Cl)cc4)N=C3C)cc2)cc1 (stereo not given) | 54.5 µM (inactive) | > 100 µM (inactive) | > 100 µM (inactive) | > 100 µM (inactive) | > 100 µM (inactive) | 51.9 µM (inactive) | > 100 µM (inactive) | > 100 µM (inactive) | > 100 µM (inactive) | 61.5 µM (inactive) | > 100 µM (inactive) | > 100 µM (inactive) | > 100 µM (inactive) | > 100 µM (inactive) | > 100 µM (inactive) | 35.7 µM (inactive) | > 100 µM (inactive) | > 100 µM (inactive) | > 100 µM (inactive) | > 100 µM (inactive)
7 | O=C1NC2(CCCCC2)C(=O)N1CCN(CCCl)CCCl [SPIROMUSTINE] | 107 µM (inactive) | > 250 µM (inactive) | 134 µM (inactive) | 171 µM (inactive) | 102 µM (inactive) | > 141 µM (inactive) | 113 µM (inactive) | 65.5 µM (inactive) | > 25 µM (inactive) | 187 µM (inactive) | 61.5 µM (inactive) | > 25 µM (inactive) | 45.8 µM (inactive) | > 250 µM (inactive) | 218 µM (inactive) | > 25 µM (inactive) | 41.9 µM (inactive) | > 25 µM (inactive) | > 250 µM (inactive) | > 230 µM (inactive)

From ChEMBL document CHEMBL1201862, “PubChem BioAssay data set” (2004)
